Drawing on PMC10859961, “Ir(III) Half-Sandwich Photosensitizers with a π-Expansive Ligand for Efficient Anticancer Photodynamic Therapy” (Journal of Medicinal Chemistry, 2024), this text covers IC50 and PI for one compound.

Read-outs that look alike come from different tables or passages of the source.

A word on the IC50: it is the midpoint of a concentration-inhibition curve.

The test system of this experiment is multicellular A549 tumor spheroids. The experiment in a line: Cytotoxic activity against spheroids (CellTiter-Glo 3D). The format is cell-based, human. Particulars: for IC50: 48 h. How it is done:
For the evaluation of the cytotoxic activity of complex 6 in 3D cultures, 96-well plates coated with a thin solidified layer of Geltrex reduced growth factor basement membrane matrix (Gibco) were used to form A549 spheroids. A density of 1500 single cells per well was seeded in culture medium supplemented with 2% Geltrex. Treatments with concentrations of complex 6 ranging from 5 to 0.001 μM in culture medium containing 2% Geltrex were performed at day 6. The cells were then kept in the dark or photoactivated with blue light, as described. After 48 h, the treatments were removed, the cells were washed with PBS and cell viability was determined by adding 100 μL of medium and 100 μL of CellTiter-Glo 3D reagent (Promega) to each well. Following the manufacturer’s protocol, the cells were kept in agitation for 5 min and incubated for 25 min at room temperature. Then, the luminescence was determined using a Multiscan Plate Reader (Synergy 4, Biotek, Winooski). The IC50 values were calculated with the Gen5 Data Analysis Software (BioTeck) for two independent experiments, each with duplicate samples. Nontreated cells were used as control.
On the technique in general: In ATP-based viability assays light output follows the ATP content of the culture.

For the compound `Cc1c(C)c(C)[c-](C)c1C.F[B-](F)(F)F.c1ccc2cc3nc4c5ccc[n+]6c5c5[c](cccc5c4nc3cc2c1)[Ir]6[n+]1ccn(CCN2CCCCC2)c1` [complex 6, [(η^5-C5Me5) Ir(Imepip)(pbpn)]BF4], the IC50 runs as follows: (blue light photoactivation, read-out: IC50,light) 5 ± 1 nM; (dark, read-out: IC50,dark) 1200 ± 200 nM. Moreover, the PI (blue light) stood at 240.
